This is an account of results in patent US20220323406A1, “METHODS AND COMPOSITIONS FOR DIFFERENTIATING STEM CELLS” (Massachusetts Institute of Technology, priority 2019, published 2022).

Experiment [1] concerns ENR+CD organoids (ISC to Paneth cell differentiation). The experiment is described as follows: Primary screen: basal (non-stimulated) lysozyme secretion LYZ.NS, 2.5-D 384-well ENR+CD organoid differentiation. In kind it is cell-based, mouse. The text has this:
(§1) High-throughput screening.

Experiment [2] shares this test system. Nature of the experiment: Primary screen: CCh-stimulated lysozyme secretion LYZ.S, 2.5-D 384-well ENR+CD organoid differentiation. Format: cell-based, mouse. To be noted: primary screen.
Text: as §1

Experiment [3] relates to ENR+CD organoids. The experiment is described as follows: Primary screen: ATP (CellTiter-Glo 3D, CTG) cell number/viability, 2.5-D 384-well ENR+CD organoids.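 Note: compounds given at plating and again on day 3 over a 6-day differentiation from ENR+CV stem-cell-enriched precursors, ATP measured on day 6, plate median as control.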 Particulars: primary screen.
The mark [4] stands for this setting: dose 0.08 uM, FC vs plate median.
Where [5] appears, read: dose 0.40 uM, FC vs plate median.
[6] abbreviates: dose 2.00 uM, FC vs plate median.
The mark [7] stands for this setting: dose 10.00 uM, FC vs plate median.
The mark [8] stands for this setting: primary screen, standard z score, dose 0.08 uM.
Where [9] appears, read: primary screen, standard z score, dose 0.40 uM.
The mark [10] stands for this setting: primary screen, standard z score, dose 2.00 uM.
Setting [11] is: primary screen, standard z score, dose 10.00 uM.

Regarding `Nc1nc(OCc2cc(Br)cs2)c2[nH]cnc2n1` [Lomeguatrib], the “Dose.FC.LYZ.NS (log2 fold change)” value is on record as −0.050 in experiment [1] (primary screen, dose 0.08 uM); −0.019 in experiment [1] (primary screen, dose 0.40 uM); −0.022 in experiment [1] (primary screen, dose 2.00 uM); −0.104 in experiment [1] (primary screen, dose 10.00 uM). Moreover, the “Z.LYZ.NS (standard z score)” value in experiment [1] (primary screen, dose 0.08 uM) was −0.437; in experiment [1] (primary screen, dose 0.40 uM), −0.161; in experiment [1] (primary screen, dose 2.00 uM), −0.193; in experiment [1] (primary screen, dose 10.00 uM), −0.908. For the same compound, the “Dose.FC.LYZ.S (log2 fold change)” value in experiment [2] (dose 0.08 uM) is −0.082; in experiment [2] (dose 0.40 uM), −0.022; in experiment [2] (dose 2.00 uM), −0.055; in experiment [2] (dose 10.00 uM), −0.138. For the same compound, the “Dose.FC.CTG (log2 fold change)” value in experiment [3] (dose 0.08 uM) was −0.426; in experiment [3] (dose 0.40 uM) it was −0.309; in experiment [3] (dose 2.00 uM) it was 0.075; in experiment [3] (dose 10.00 uM) it was −0.080.
As for `Nc1cccc2c1C(=O)N(C1CCC(=O)NC1=O)C2=O` (stereo not shown) [Pomalidomide], the Z.LYZ.NS is reported as −0.019 in experiment [1] (primary screen, dose 0.08 uM, standard z score); −0.013 in experiment [1] (primary screen, dose 0.40 uM, standard z score); −0.334 in experiment [1] (primary screen, dose 2.00 uM, standard z score); −1.098 in experiment [1] (primary screen, dose 10.00 uM, standard z score). Besides, the Dose.FC.LYZ.NS in experiment [1] (primary screen; dose 0.08 uM; FC vs plate median) is listed as −0.002 log2 fold change; in experiment [1] (primary screen; dose 0.40 uM; FC vs plate median), −0.001 log2 fold change; in experiment [1] (primary screen; dose 2.00 uM; FC vs plate median) it was −0.038 log2 fold change; in experiment [1] (primary screen; dose 10.00 uM; FC vs plate median), −0.126 log2 fold change. Moreover, the Dose.FC.LYZ.S in experiment [2] (setting [4]) is given as −0.028 log2 fold change; in experiment [2] (setting [5]), −0.082 log2 fold change; in experiment [2] (setting [6]), −0.115 log2 fold change; in experiment [2] (setting [7]), −0.205 log2 fold change. The Dose.FC.CTG in experiment [3] (setting [4]) is listed as 0.063 log2 fold change; in experiment [3] (setting [5]), 0.224 log2 fold change; in experiment [3] (setting [6]), −0.216 log2 fold change; in experiment [3] (setting [7]), −0.305 log2 fold change.
For `COc1ccc([C@]2(C#N)CC[C@@H](C(=O)O)CC2)cc1OC1CCCC1` [Cilomilast], the Dose.FC.LYZ.NS in experiment [1] (primary screen, dose 0.08 uM) is given as 0.114 log2 fold change; in experiment [1] (primary screen, dose 0.40 uM), −0.037 log2 fold change; in experiment [1] (primary screen, dose 2.00 uM) it was −0.010 log2 fold change; in experiment [1] (primary screen, dose 10.00 uM), −0.043 log2 fold change. Moreover, the Z.LYZ.NS is 0.995 in experiment [1] (setting [8]), −0.321 in experiment [1] (setting [9]), −0.083 in experiment [1] (setting [10]) and −0.376 in experiment [1] (setting [11]). Besides, the Dose.FC.LYZ.S is 0.115 log2 fold change in experiment [2] (dose 0.08 uM), −0.109 log2 fold change in experiment [2] (dose 0.40 uM), −0.083 log2 fold change in experiment [2] (dose 2.00 uM) and −0.045 log2 fold change in experiment [2] (dose 10.00 uM). The Dose.FC.CTG in experiment [3] (dose 0.08 uM) was −0.334 log2 fold change; in experiment [3] (dose 0.40 uM) it was −0.338 log2 fold change; in experiment [3] (dose 2.00 uM), −0.235 log2 fold change; in experiment [3] (dose 10.00 uM) it was −0.192 log2 fold change.
In the case of `Cc1nc(C(=O)NCC(=O)O)c(O)c2ccc(Oc3ccccc3)cc12` [FG-4592], the Dose.FC.LYZ.NS was 0.077 log2 fold change in experiment [1] (primary screen, dose 0.08 uM); 0.170 log2 fold change in experiment [1] (primary screen, dose 0.40 uM); 0.094 log2 fold change in experiment [1] (primary screen, dose 2.00 uM); 0.030 log2 fold change in experiment [1] (primary screen, dose 10.00 uM). For the same compound, the Z.LYZ.NS was 0.673 in experiment [1] (setting [8]), 1.484 in experiment [1] (setting [9]), 0.822 in experiment [1] (setting [10]) and 0.265 in experiment [1] (setting [11]). The Dose.FC.LYZ.S in experiment [2] (dose 0.08 uM) is reported as 0.083 log2 fold change; in experiment [2] (dose 0.40 uM), 0.234 log2 fold change; in experiment [2] (dose 2.00 uM) it was 0.152 log2 fold change; in experiment [2] (dose 10.00 uM), 0.071 log2 fold change. Moreover, the Dose.FC.CTG in experiment [3] (dose 0.08 uM) is given as 0.327 log2 fold change; in experiment [3] (dose 0.40 uM) it was 0.284 log2 fold change; in experiment [3] (dose 2.00 uM) it was 0.290 log2 fold change; in experiment [3] (dose 10.00 uM) it was 0.238 log2 fold change.
On to `NC(=O)c1ncn([C@@H]2O[C@H](CO)[C@@H](O)[C@H]2O)c1N` [Acadesine], for which the Dose.FC.LYZ.NS in experiment [1] (primary screen, dose 0.08 uM) was 0.023 log2 fold change; in experiment [1] (primary screen, dose 0.40 uM) it was −0.016 log2 fold change; in experiment [1] (primary screen, dose 2.00 uM), 0.016 log2 fold change; in experiment [1] (primary screen, dose 10.00 uM) it was −0.070 log2 fold change. For the same compound, the “Z.LYZ.NS (standard z score)” value in experiment [1] (primary screen, dose 0.08 uM) was 0.198; in experiment [1] (primary screen, dose 0.40 uM) it was −0.137; in experiment [1] (primary screen, dose 2.00 uM), 0.140; in experiment [1] (primary screen, dose 10.00 uM), −0.607. Moreover, the Dose.FC.LYZ.S in experiment [2] (dose 0.08 uM) was 0.004 log2 fold change; in experiment [2] (dose 0.40 uM), −0.012 log2 fold change; in experiment [2] (dose 2.00 uM), 0.053 log2 fold change; in experiment [2] (dose 10.00 uM), −0.102 log2 fold change. The Dose.FC.CTG in experiment [3] (dose 0.08 uM) was 0.094 log2 fold change; in experiment [3] (dose 0.40 uM), 0.173 log2 fold change; in experiment [3] (dose 2.00 uM), −0.005 log2 fold change; in experiment [3] (dose 10.00 uM), 0.076 log2 fold change.
Turning to `O=C(/C=C/c1ccc(O)c(O)c1)OCCc1ccccc1` [Caffeic Acid Phenethyl Ester], the Dose.FC.LYZ.NS in experiment [1] (primary screen, dose 0.08 uM) is reported as 0.053 log2 fold change; in experiment [1] (primary screen, dose 0.40 uM), 0.167 log2 fold change; in experiment [1] (primary screen, dose 2.00 uM), 0.090 log2 fold change; in experiment [1] (primary screen, dose 10.00 uM), −0.026 log2 fold change. In addition, the Z.LYZ.NS in experiment [1] (setting [8]) is given as 0.465; in experiment [1] (setting [9]), 1.453; in experiment [1] (setting [10]) it was 0.781; in experiment [1] (setting [11]), −0.227. The Dose.FC.LYZ.S is reported as 0.189 log2 fold change in experiment [2] (dose 0.08 uM), 0.070 log2 fold change in experiment [2] (dose 0.40 uM), −0.021 log2 fold change in experiment [2] (dose 2.00 uM) and −0.117 log2 fold change in experiment [2] (dose 10.00 uM). Besides, the Dose.FC.CTG in experiment [3] (dose 0.08 uM) is reported as 0.262 log2 fold change; in experiment [3] (dose 0.40 uM), −0.011 log2 fold change; in experiment [3] (dose 2.00 uM), −0.064 log2 fold change; in experiment [3] (dose 10.00 uM) it was −0.511 log2 fold change.
As for `CCOC(=O)C1=C(C)NC(C)=C(C(=O)OC)C1c1cccc(Cl)c1Cl` (stereo not shown) [Felodipine], the Dose.FC.LYZ.NS in experiment [1] (primary screen, dose 0.08 uM) is recorded as 0.001 log2 fold change; in experiment [1] (primary screen, dose 0.40 uM), −0.033 log2 fold change; in experiment [1] (primary screen, dose 2.00 uM) it was 0.002 log2 fold change; in experiment [1] (primary screen, dose 10.00 uM), −0.056 log2 fold change. Besides, the Z.LYZ.NS in experiment [1] (setting [8]) was 0.010; in experiment [1] (setting [9]), −0.284; in experiment [1] (setting [10]) it was 0.017; in experiment [1] (setting [11]), −0.487. Also, the Dose.FC.LYZ.S in experiment [2] (dose 0.08 uM) is reported as 0.008 log2 fold change; in experiment [2] (dose 0.40 uM), −0.042 log2 fold change; in experiment [2] (dose 2.00 uM), −0.003 log2 fold change; in experiment [2] (dose 10.00 uM), −0.067 log2 fold change. In addition, the Dose.FC.CTG in experiment [3] (dose 0.08 uM) is −0.078 log2 fold change; in experiment [3] (dose 0.40 uM), −0.319 log2 fold change; in experiment [3] (dose 2.00 uM), 0.011 log2 fold change; in experiment [3] (dose 10.00 uM), 0.032 log2 fold change.
